Like-named read-outs stand apart in the source and are kept apart here.
Tests used:
[1] = test system: P. falciparum stages IV–V gametocytes; assay: Gametocytocidal ATP-depletion assay (gametocyte ATP bioluminescence); format: cell-based, Plasmodium falciparum
In short: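 Read-out is luciferase luminescence of parasite ATP (BacTiter-Glo), standing in for viability. Double-purified mature stage IV–V gametocytes, 12,500 per well, were exposed 48 h at 37 °C in low-O2 gas; screening concentration 2 μM.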

[2] = test system: P. falciparum stage V female gametocytes; assay: P. falciparum female gametocyte activation assay (Pf FGAA), 24 h or 48 h preincubation, Pfs25 expression readout; format: cell-based, Plasmodium falciparum NF54; details: mean, read-out: Gametocytes mean Pf FGAA IC50
In short: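 Female activation, triggered by xanthurenic acid and cooling, was scored by imaging Cy3-labelled anti-Pfs25 female gametes after 24 h at 26 °C. Beforehand, purified NF54 stage V gametocytes had been incubated with compound for either 24 h or 48 h (37 °C, 3% O2). Values are pIC50 from full-curve regression.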

HepG2 cells = assay: HepG2 cytotoxicity assay; format: cell-based
In short: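 Luminescent read-out (CellTiter-Glo) taken 10 min after reagent addition at RT; plates and reagent pre-equilibrated 30 min at RT.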

[3] = test system: P. falciparum asexual blood stages; details: read-out: Pf Asexual blood stages XC50, cited from earlier work
[4] = TCAMS data, ref 1 (Gamo et al., 2010)
[5] = P. falciparum female gametocytes
[6] = TCAMS asexual blood stage data, ref 1 (Gamo, F. J. et al., Nature 465, 305-310, 2010)
[7] = P. falciparum female gametocyte activation assay

| SMILES | Gametocytes mean ATP inhibition at 2µM (%) [1] | IC50 [2] | HepG2 cells mean TOX50 (HepG2 cells; mean) | IC50 [3, 4] | Gametocytes mean ATP inhibition at 2µM [1] | IC50 [2, 5] | HepG2 cells mean TOX50 (HepG2 cells; HepG2 cells; mean) | IC50 [3, 6] | IC50 [2, 7] | HepG2 cells mean TOX50 (HepG2 cells; mean; HepG2 cells) |
| --- | --- | --- | --- | --- | --- | --- | --- | --- | --- | --- |
| Cc1cc2nc(N=C3NC4(c5ccccn5)NC(=Nc5nc6cc(C)c(C)cc6[nH]5)NC4(c4ccccn4)N3)[nH]c2cc1C.O=C(O)C(F)(F)F (stereo not shown) [TCMDC-139105] | 33.60% | 5340 nM | 35.91 µM | 680 nM | – | – | – | – | – | – |
| Cc1cc(I)ccc1Nc1nc2nonc2nc1Nc1ccc(I)cc1C [TCMDC-124083] | – | – | – | – | 6.94% | 1080 nM | 0.93 µM | 510 nM | – | – |
| COc1cc2ccccc2cc1CCNCCCCNCCc1cc2ccccc2cc1OC.CS(=O)(=O)O [TCMDC-137944] | 84.04% | 620 nM | 1.66 µM | 400 nM | – | – | – | – | – | – |
| COc1ccccc1CNc1ccnc(N2CC(Oc3ccc(F)cc3)C2)n1 [TCMDC-135118] | – | – | – | – | 42.55% | 4070 nM | 73.68 µM | 850 nM | – | – |
| Cc1occc1C(=O)Nc1nc(-c2ccccn2)nc2ccsc12 [TCMDC-135244] | – | – | – | – | 87.21% | 60 nM | >100 µM | 900 nM | – | – |
| C[C@H](Cc1ccc(Oc2ccc(C[C@@H](C)NC[C@H](O)c3cccc(Cl)c3)cc2)cc1)NC[C@H](O)c1cccc(Cl)c1.Cl [TCMDC-131560] | – | – | – | – | 70.55% | 720 nM | 2.04 µM | 560 nM | – | – |
| Fc1ccc2nc(Nc3nc(-c4ccccn4)cs3)sc2c1 [TCMDC-125540] | – | – | – | – | 71.05% | 54.3 nM | 58.31 µM | 560 nM | – | – |
| CC(C)(C)c1cc(NC2CC2)nc(-c2ccccn2)n1 [TCMDC-125826] | – | – | – | – | 84.45% | 120 nM | >100 µM | 720 nM | – | – |
| O=C(Nc1cc(C(F)(F)F)cc(C(F)(F)F)c1)Nc1ccc(Cl)c(Cl)c1 [TCMDC-125592] | – | – | – | – | -6.96% | 1430 nM | 3.07 µM | 240 nM | – | – |
| CC(Cc1ccc(CNC(=O)c2ccc(CC(C)NCCc3cccc(Cl)c3)cc2)cc1)NCCc1cccc(Cl)c1 (stereo not shown) [TCMDC-139659] | -0.70% | 860 nM | 2.26 µM | 700 nM | – | – | – | – | – | – |
| COc1c(CNCCCCCCNCc2c(OC)c(OC)c3ccccc3c2OC)c(OC)c2ccccc2c1OC.CS(=O)(=O)O [TCMDC-137837] | 18.67% | 3690 nM | 4.42 µM | 960 nM | – | – | – | – | – | – |
| Br.CCCCc1ccc(CCNCCCCCCNCCc2ccc(O)c(O)c2)cc1 [TCMDC-131281] | – | – | – | – | 60.07% | 2150 nM | 4.63 µM | 1070 nM | – | – |
| CC(C)(C)c1ccc(CN2CCC(CNC(=O)c3cc(-c4ccccc4C(F)(F)F)cs3)C2)cc1.O=C(O)C(F)(F)F (stereo not shown) [TCMDC-134441] | – | – | – | – | -17.21% | 690 nM | 9.77 µM | 1240 nM | – | – |
| CCC(CSC1CCCCC1)N(C)CCN(C)C(CC)CSC1CCCCC1.Cl (stereo not shown) [TCMDC-131456] | – | – | – | – | 36.19% | 1250 nM | 0.0654 µM | 310 nM | – | – |
| Cn1c(Sc2ncnc3sccc23)nc2ccccc21 [TCMDC-124514] | – | – | – | – | 17.03% | 1250 nM | >100 µM | 190 nM | – | – |
| COc1ccc(-c2cnc3[nH]cc(-c4ccncc4)c3c2)cc1OC [TCMDC-135853] | – | – | – | – | 76.41% | 2260 nM | 11.79 µM | 130 nM | – | – |
| COc1ccc(CNC2Cc3ccccc3C2)cc1-c1ccc(S(=O)(=O)NCCN2CCCC2)c(F)c1.O=C(O)C(F)(F)F [TCMDC-132266] | – | – | – | – | 7.12% | 1950 nM | 6.03 µM | 720 nM | – | – |
| Cl.c1ccc2c(C3CCN(CCCCOc4ccc5c(c4)CCN(CC4CC4)CC5)CC3)c[nH]c2c1 [TCMDC-136244] | -6.50% | 1150 nM | 5.15 µM | 980 nM | – | – | – | – | – | – |
| SC(=Nc1ccc(Cl)c(Cl)c1)NN=Cc1ccccn1 [TCMDC-125522] | – | – | – | – | 64.79% | 80 nM | 3.47 µM | 770 nM | – | – |

| SMILES | Gametocytes mean ATP inhibition at 2µM (%) [1] | IC50 [2] | HepG2 cells mean TOX50 (HepG2 cells; mean) | IC50 [3, 4] | Gametocytes mean ATP inhibition at 2µM [1] | IC50 [2, 5] | HepG2 cells mean TOX50 (HepG2 cells; HepG2 cells; mean) | IC50 [3, 6] | IC50 [2, 7] | HepG2 cells mean TOX50 (HepG2 cells; mean; HepG2 cells) |
| --- | --- | --- | --- | --- | --- | --- | --- | --- | --- | --- |
| CS(=O)(=O)O.FC(F)(F)COc1ccc2ccccc2c1CNCCCCCCNCc1c(OCC(F)(F)F)ccc2ccccc12 [TCMDC-137816] | 27.96% | 1090 nM | 1.84 µM | 350 nM | – | – | – | – | – | – |
| O=c1c(NCCCN(Cc2ccc(F)cc2)c2ccccn2)c(NCc2cccnc2)c1=O [TCMDC-142311] | – | – | – | – | 58.25% | – | – | 60 nM | 360 nM | >100 µM |
| O=C(O)CCSSc1cccc[n+]1[O-] [TCMDC-141973] | – | – | – | – | 100.49% | – | – | 810 nM | 40 nM | 19.05 µM |
| CCCOc1ccc(CCNCCCCNCCc2ccc(OCCC)c3ccccc23)c2ccccc12.CS(=O)(=O)O [TCMDC-137952] | 94.33% | 610 nM | 2.16 µM | 920 nM | – | – | – | – | – | – |
| CN(C)c1ccc(-c2csc(C(=O)NCC3CCN(Cc4ccc(C(C)(C)C)cc4)C3)c2)cc1.O=C(O)C(F)(F)F (stereo not shown) [TCMDC-134449] | – | – | – | – | -20.17% | 600 nM | 7.24 µM | 990 nM | – | – |
| CC(C)Cn1cc(C2CCN(CCN3CCC(CNC(=O)c4ccc(-c5ccc(C#N)cc5)cc4)CC3)CC2)c2ccccc21 [TCMDC-138849] | 8.40% | 1030 nM | 4.79 µM | 790 nM | – | – | – | – | – | – |
| COc1c(C2CCN(CCN3CCC(CNC(=O)c4ccc(-c5ccc(C#N)cc5)cc4)CC3)CC2)ccc2c1CCCC2 [TCMDC-138859] | 3.05% | 1460 nM | 3.43 µM | 460 nM | – | – | – | – | – | – |
| Nc1nc(N)c2c(ccc3c2ccn3Cc2cccc(F)c2)n1 [TCMDC-137810] | 0.71% | 1420 nM | 0.06 µM | 3 nM | – | – | – | – | – | – |
| CS(=O)(=O)O.CSc1ccc2ccccc2c1CCNCCCCNCCc1c(SC)ccc2ccccc12 [TCMDC-137763] | 93.38% | 1010 nM | 1.82 µM | 410 nM | – | – | – | – | – | – |
| CCc1c(CCNCCCCCCNCCc2ccc3c(c2C)OCO3)ccc2c1OCO2.Cl [TCMDC-132093] | – | – | – | – | 10.41% | 1020 nM | 3.89 µM | 610 nM | – | – |
| CCc1ccccc1-c1csc(C(=O)NCC2CCN(Cc3ccc(C(C)(C)C)cc3)C2)c1.O=C(O)C(F)(F)F (stereo not shown) [TCMDC-134448] | – | – | – | – | -14.62% | 1200 nM | 7.67 µM | 1150 nM | – | – |
| COc1ccccc1C1CCN(C2CCC(NC(=O)c3ccc4[nH]c(-c5ccc(C)cc5)nc4c3)CC2)CC1 (stereo not shown) [TCMDC-133556] | – | – | – | – | 22.02% | 2490 nM | 3.99 µM | 310 nM | – | – |
| COc1ccc(CNCCCCCCNCc2ccc(OC)c3ccccc23)c2ccccc12.Cl [TCMDC-137631] | 16.64% | 720 nM | 1.82 µM | 580 nM | – | – | – | – | – | – |
| CC(CCCCCC(=O)Nc1ccc(CC(C)NCCc2cccc(Cl)c2)cc1)NCCc1cccc(Cl)c1 (stereo not shown) [TCMDC-139800] | 20.09% | 1390 nM | 2.55 µM | 950 nM | – | – | – | – | – | – |
| CCOc1cc(CNCCCCCCNCc2cc(OCC)c(OCC)c3ccccc23)c2ccccc2c1OCC.CS(=O)(=O)O [TCMDC-137939] | 5.51% | 1780 nM | 2.00 µM | 280 nM | – | – | – | – | – | – |
| Cc1ccnc(NC(c2cccc(Cl)c2Cl)c2ccc3cccnc3c2O)c1 (stereo not shown) [TCMDC-123997] | – | – | – | – | 90.58% | 1910 nM | 45.69 µM | 1000 nM | – | – |
| N=C(/N=C(/NCCCCCCN/C(=N\C(=N)Nc1ccc(Cl)cc1)N1CCCCC1)N1CCCCC1)Nc1ccc(Cl)cc1 [TCMDC-131811] | – | – | – | – | 49.82% | 7870 nM | 44.23 µM | 260 nM | – | – |
| COc1cc2nc(N3CCN(c4nc(N)c5cc(OC)c(OC)cc5n4)CC3)nc(N)c2cc1OC [TCMDC-123865] | – | – | – | – | 90.91% | 580 nM | 52.49 µM | 150 nM | – | – |
